According to patent US20060069152A1, “Crystalline mycophenolate sodium” (priority 2004, published 2006):
Read-outs that look alike come from different tables or passages of the source.

How the values were obtained:
[1] = Hygroscopicity: crystal forms exposed to different levels of humidity for one week, then analysed by TGA and XRD; type: physicochemical; settings: for LOD(%): one week, TGA
Protocol: The hygroscopicity of monosodium mycophenolate crystal forms M1, M2, M3 and disodium mycophenolate crystal forms D1 and D1±D2 were also investigated. Form M1, M2, M3, D1 and D1±D2 were exposed to different level of humidity for one week and after equilibrium they were analysed by TGA and XRD for water content and crystal structure. Table 5 summarizes the results:
(§1) ARL X-ray powder diffractometer model X′TRA-030, Peltier detector, round standard aluminum sample holder with round zero background quartz plate was used. Scanning parameters: Range: 2-40 deg. 2 θ, continuous Scan, Rate: 3 deg./min. The accuracy of peak positions is defined as ±/−0.2 degrees due to experimental differences like instrumentations, sample preparations etc.
• TGA/SDTA 851^e, Mettler Toledo, Sample weight 7-15 mg. • Heating rate: 10° C./min., In N2 stream: flow rate=50 ml/min • Scan range: 30-250° C. Microscope
200 mg of each of the following samples: crystal Form M2, crystal Form M3 and crystal Form D1 were put at room temperature into a hygroscopicity chamber containing 100% relative humidity for one week. After one week they were measured again by XRD to determine their crystal forms.

[2] = Crystal form transformation by heating in an oven at atmospheric pressure, XRD before and after; type: physicochemical; settings: for Crystal form after heating (XRD): 30 min., atmospheric pressure
Protocol: Representatives of all monosodium and disodium mycophenolate crystal forms, M1, M2, M1±M3, D1 and D1±D2 were heated in an oven at atmospheric pressure at 130° C. and 170° C. for 30 minutes. The samples were analyzed by XRD before and after heating.
as §1
200 mg of a mixture of Forms M1±M3 as identified by XRD, was put into an oven in a glass weighing bottle at 170° C. for 0.5 h. Then it was put into a desiccator and allowed to cool to room temperature. […] Transformation of M2 to M1, M3 to M1 and D1 to D2 by water vapors absorption

In the case of `COc1c(C)c2c(c([O-])c1C/C=C(\C)CCC(=O)[O-])C(=O)OC2.[Na+].[Na+]` [D1 + D2, disodium mycophenolate], the “LOD(%)” value ([1]; 20% RH) is reported as 10.2%, the “LOD(%)” value ([1]; 40% RH) is reported as 10.3% and the “LOD(%)” value ([1]; 80% RH) is reported as 16.9%. The “LOD(%)” value ([1]; 100% RH) was 42.1%.

For `COc1c(C)c2c(c([O-])c1C/C=C(\C)CCC(=O)[O-])C(=O)OC2.[Na+].[Na+]` [Form D1, disodium mycophenolate], the “LOD(%)” value ([1]; 40% RH, listed as D1) was 2.17%, the “LOD(%)” value ([1]; 60% RH) was 11.64% and the “LOD(%)” value ([1]; 80% RH, listed as D1) was 17.20%. For the same compound, the “LOD(%)” value ([1]; 100% RH, listed as D1) was 31.87% and the “relative stability of the form at high temperature” value [2] was “the most stable forms at high temperature”.

In the case of `COc1c(C)c2c(c([O-])c1C/C=C(\C)CCC(=O)[O-])C(=O)OC2.[Na+].[Na+]` [Form D2, disodium mycophenolate], the “relative stability of the form at high relative humidity” value ([1]; room temperature, high relative humidity) is reported as “the most stable form at room temperature, at high relative humidity”.

For `COc1c(C)c2c(c(O)c1C/C=C(\C)CCC(=O)O)C(=O)OC2` [Form M1, mycophenolate sodium], the “relative stability of the form at high relative humidity” value [1] was “the most stable form at room temperature, at high relative humidity”.

With `COc1c(C)c2c(c(O)c1C/C=C(\C)CCC(=O)O)C(=O)OC2` [Form M2, mycophenolate sodium] the “relative stability of the form at high temperature” value ([2]; heating at 130° C. and 170° C.) was “the most stable forms at high temperature”.

In the case of `COc1c(C)c2c(c(O)c1C/C=C(\C)CCC(=O)[O-])C(=O)OC2.[Na+]` [M1 + M3, mycophenolate sodium], the “Crystal form after heating (XRD)” value ([2]; 130° C.) is reported as “M3 > Ml” and the “Crystal form after heating (XRD)” value ([2]; 170° C.) is reported as “Form M2”.

With `COc1c(C)c2c(c([O-])c1C/C=C(\C)CCC(=O)[O-])C(=O)OC2.[Na+].[Na+]` [disodium mycophenolate] the equilibrium water content ([1]; after humidity exposure) was “about 17%”.
